Publication PMC10517462, “Small molecule targeting of the p38/Mk2 stress signaling pathways to improve cancer treatment” (BMC Cancer, 2023)

Assays:
[1] = tested on: SW480 colorectal cancer cell line; test: CCK8 cell viability assay, SW480; assay type: cell-based, human; conditions: MK2.III 1 µM alone, 24 h
Description: (§1) To assess the effect of MK2.III kinase inhibitor and the etoposide (VP-16) on the viability of different cancer cell lines, cells were seeded in 96-well plates in a concentration of 5000 cells per well. After 12 h, etoposide and 1 μM MK2.III diluted in culture media were added into the wells for 24 h. NCI-H69 cells were exposed to a series of etoposide concentrations from 20 μM to 150 μM. MDA-MB-231, SW 620, and SW 480 cell lines were incubated with 150 μM etoposide. After treatment, 10 μL of the CCK-8 reagent (96992, Sigma) was added to each well for 1 h followed by optical density measurement at 450 nm using hybrid plate reader Synergy H1.

NCI-H69 cells = test: FACS-based cell cycle analysis; set-up: species or system human; conditions: single treatment, increasing dose
Description: The cells were grown in 12 well plates (Scientific Laboratory Supplies Limited, UK) in RPMI 1640 (Gibco, UK) supplemented with 10% FBS (Autogen Bioclear, UK) and 10,000 U/ml penicillin and 10 mg/ml streptomycin (Sigma, UK) at 37 °C under 5% CO2 and treated with 10, 20, 50, 100 and 150 µM of DNA damaging agent etoposide (VP-16) (Sigma, UK) in the presence or absence of p38MAPK inhibitor SB203580 (Tocris Chemical Co., UK) or MK2 inhibitor MK2.III (Merck, UK) in concentrations of 0, 0.3125, 0.625, 1.25, 2.5, and 5.0 µM. Etoposide, SB203580 and MK2.III were all dissolved in 0.2% of DMSO before use. Cells treated only with the carrier molecule DMSO (0.2%) served as a control.
Viability analysis was performed by staining with the […], stoichiometric DNA stain DRAQ7 (640 or 633 nm excitation and 670 nm emission; Biostatus Limited). After 48-h treatment with DNA damaging agents and/or inhibitors, cells were washed once with RPMI 1640 and resuspended in 1 ml culture media at a concentration of less than 5 × 10^5/ ml. Cells were stained with 20 µM of DRAQ7 and incubated at 37 °C for 10 min before FACS Calibur cytometer analysis. Fluorescent signals were amplified using linear mode. Cell cycle analysis was performed either by staining DRAQ7 or Propidium Iodide (PI). Cells were stained with 20 µM of DRAQ7 and incubated at 37 °C for 10 min before analysis on a FACSCalibur cytometer. […]

[2] = Pharmacokinetics of MK2.III in CD-1 mice (HPLC-MS/MS); assay type: in vivo, CD-1 mouse
Description: We investigated the pharmacokinetics (PK) and bioavailability of small molecules (MK2.III) with intraperitoneal and intravenous injection before studying its tumor suppressor properties in combination with DNA-damaging agents. For this set of experiments CD-1 mouse line (male,7 weeks, body weight of 23–25 g, n = 198, Charles River) was used with a one-time intraperitoneal injection (IP) of 2, 10, and 50 mg/kg doses of the MK2.III or 2 mg/kg intravenous injection (IV) of the same drug. The small molecule was prepared using PBS containing 10% DMSO. MK2.III was isolated from mouse serum using protein settling method with acetonitrile and drug concentrations were detected using HPLC – MS/MS.
Blood samples were obtained from the retro-orbital sinus (at […] for IV groups; at […] for IP groups, respectively) in polypropylene tubes containing 20 μl of 5% EDTA. Blood plasma was separated by centrifugation at 1500 g for 10 min and was stored at -80 °C until analysis. Data were obtained from six animals per time.
An Agilent 1260 Infinity system, a hybrid triple-quadrupole mass spectrometer, and QTRAP 5500 electrospray ionization were used for determining the MK2.III concentration in blood plasma. Separations were achieved using a YMC Triart C18 50 × 2,1 mm, 1,9 μm column. The mobile phase consisted of A (0.1% aqueous formic acid) and B (0.1% formic acid in acetonitrile). The gradient elution t = 0, A:B 95:5; t = 2 min A:B 5:95; t = 2.1 A:B 5:95; t = 2.2 A:B 95:5; t = 2.8 A:B 95:5; flow rate was 0.5 mL min − 1; Retention time—2.8 min. The injection volume was 2 μL. The temperature of the column was set at 40 °C. Tolbutamide was selected as an internal standard. Thawed plasma (45 μL) was transferred to a microtube (1.1 mL volume), treated with a standard solution (5 μL) of the analytes in acetonitrile: water (1:1), stirred on a vortex mixer for 10 s, treated with tolbutamide solution (200 ng/ml), stirred again on the vortex mixer for 10 s, and then proteins were precipitated in the cold at + 4 °C for 15 min, centrifuged for 10 min at 1500 g. The supernatant (150 µl) was transferred to a clean 96-well plate for HPLC–MS/MS analysis. Samples were stored at a temperature not exceeding -70 °C until analysis. The calculation of pharmacokinetic parameters was performed by using Phoenix® WinNonlin® software, version 6.3 (Pharsight Corp., Cary, NC, USA).

[3] = tested on: MDA-MB-231 breast cancer cell line; test: CCK8 cell viability assay, MDA-MB-231; assay type: cell-based, human; conditions: MK2.III 1 µM or etoposide 150 µM alone, 24 h
Description: as §1

[4] = 2 mg/kg intraperitoneal, mice serum
[5] = 10 mg/kg intraperitoneal, mice serum
[6] = 50 mg/kg intraperitoneal, mice serum

O=C1NCCc2[nH]c(-c3ccnc(-c4cnc5ccccc5c4)c3)cc21 [MK2.III]
Effect of single agent on viability [1]: does not affect the viability | Effect on cell cycle profile, single agent (NCI-H69 cells): little effect on the cell cycle profile | AUClast [2, 4]: 1,99 hr*ng/ml | Cmax [2, 4]: 2,15 ng/ml | MRTlast [2, 4]: 1,28 hr | Tmax [2, 4]: 2 h | Highest concentration of the drug in serum ([2]; 2 mg/kg intravenous, at the time of the injection): 11 ng/mL | Serum concentration ([2]; 2 mg/kg intravenous, one-hour interval): 2.15 ng/mL | AUCinf [2, 5]: 203 ng·h/mL | AUClast [2, 5]: 130 ng·h/mL | Cl/F [2, 5]: 821 mL/min/kg | Cmax [2, 5]: 38,3 ng/ml | Kel [2, 5]: 0,05 1/hr | MRTinf [2, 5]: 21,7 hr | MRTlast [2, 5]: 8,59 hr | T1/2 [2, 5]: 14,4 hr | Tmax [2, 5]: 0,5 hr | Vz/F [2, 5]: 1027 L/kg | AUCinf [2, 6]: 548 ng·h/mL | AUClast [2, 6]: 227 ng·h/mL | Cl/F [2, 6]: 1520 mL/min/kg | Cmax [2, 6]: 42,4 ng/ml | Kel [2, 6]: 0,02 1/hr | MRTinf [2, 6]: 42,3 hr | MRTlast [2, 6]: 10,3 hr | T1/2 [2, 6]: 28,3 hr | Tmax [2, 6]: 0,5 hr | Vz/F [2, 6]: 3718 L/kg | Cmax ([2]; higher doses (10 and 50 mg/kg) intraperitoneal, within 30 min after injection): around 40 ng/ml | Linearity of pharmacokinetics ([2]; range of 2-50 mg/kg dose, intraperitoneal): does not represent linearity | Effect of single agent on viability [3]: does not affect the viability
